Measurements as given in paper PMC7734590, “Identification of a Selective RelA Inhibitor Based on DSE-FRET Screening Methods” (International Journal of Molecular Sciences, 2020).
Values joined by “and” are separate entries in the source; they are usually repeats but may differ in a detail not shown here. Equal entries are not always repeated. Structures can show the parent of a compound that is named as a salt. Where two headings read alike, the source gives them in different places.

Tests used:
[1] = molecular target: RelA (Homo sapiens, UniProt Q04206); test: DSE-FRET RelA–DNA binding inhibition; type: biochemical; design: Kinetic assay RelA Inhibition % ΔRFU(60 min-0 min) / RelA HTS % Inhibition / RelA Retest % Inhibition Run1 / RelA Retest % Inhibition Run2 / RelA Retest % Inhibition Avg. / Kinetic assay RelA % Inhibition ΔRFU(60 min-0 min): dose or concentration left out as unconfirmed; conditions: for Hit Judgement of: RelA: 1 = judged hit after retest
Chain of RelA (Q04206 19-306 limits assumed): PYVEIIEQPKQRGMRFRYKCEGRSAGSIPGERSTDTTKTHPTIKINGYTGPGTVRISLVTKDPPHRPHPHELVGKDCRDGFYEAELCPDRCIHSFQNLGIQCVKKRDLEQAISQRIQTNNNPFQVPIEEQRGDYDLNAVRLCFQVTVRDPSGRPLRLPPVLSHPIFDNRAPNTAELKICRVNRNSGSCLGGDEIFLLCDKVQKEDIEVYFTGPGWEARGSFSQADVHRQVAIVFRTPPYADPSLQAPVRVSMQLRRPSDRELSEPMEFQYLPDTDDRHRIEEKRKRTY

[2] = molecular target: T1, p52 (Homo sapiens, UniProt Q00653); test: DSE-FRET p52–DNA binding inhibition; type: biochemical; design: p52 Retest % Inhibition Run2 / p52 Retest % Inhibition Avg. / Kinetic assay p52 Inhibition % ΔRFU(60 min-0 min) / p52 HTS % Inhibition / p52 Retest % Inhibition Run1: dose or concentration left out as unconfirmed; conditions: for p52 Retest % Inhibition Avg.: Retest average of Run1 and Run2; for Hit Judgement of: p52: 1 = judged hit after retest
T1 sequence (Q00653 1-454 limits assumed): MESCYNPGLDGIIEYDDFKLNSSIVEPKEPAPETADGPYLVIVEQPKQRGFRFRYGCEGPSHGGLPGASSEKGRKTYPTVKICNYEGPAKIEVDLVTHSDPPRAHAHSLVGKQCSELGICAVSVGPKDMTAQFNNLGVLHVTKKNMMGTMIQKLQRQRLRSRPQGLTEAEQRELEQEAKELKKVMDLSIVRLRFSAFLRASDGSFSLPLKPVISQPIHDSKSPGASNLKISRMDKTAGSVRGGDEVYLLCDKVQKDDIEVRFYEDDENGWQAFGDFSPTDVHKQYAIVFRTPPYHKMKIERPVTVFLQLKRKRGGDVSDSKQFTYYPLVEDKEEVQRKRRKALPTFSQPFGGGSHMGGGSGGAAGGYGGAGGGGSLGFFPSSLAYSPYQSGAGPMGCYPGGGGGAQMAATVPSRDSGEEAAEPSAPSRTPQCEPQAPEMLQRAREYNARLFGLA
Description: Plate-based (384 scale) DNA-binding experiments were carried out with 0.1 µL of 2 mM or 1 mg/mL compound, 2 µL of 80 nM NF-D1 (consisting of NF-01F and NF-14D), 1 µL of 20 ng/µL poly dI-dC, and 6.9 µL of 3.2 pmol protein in binding buffer (10 mM 4-(2-hydroxyethyl)-1-piperazineethanesulfonic acid (HEPES)–NaOH pH 7.9, 50 mM KCl, 0.1 mM ethylenediaminetetraacetic acid (EDTA), 2.5 mM dithiothreitol (DTT), 10% glycerol, and 0.05% Nonidet P40). The plates were incubated for 30 min at room temperature, after which 10 µL of NF-D2 (consisting of NF-02 and NF-13) was added. The plates were centrifuged at 1000 rpm for 30 s, followed by shaking for 30 s using a plate shaker (Biotec). Fluorescence was measured at 528 nm, after excitation at 485 nm, using a multiplate reader (Biotec) over a period of 60 min.

[3] = kinetic assay, ΔRFU 60 min-0 min
[4] = HTS, known drugs, 10 µM, read-out: RelA HTS % Inhibition @ 10 µM
[5] = kinetic assay, 60 min-0 min, 10 µM, read-out: Kinetic assay @ 10 µM RelA % Inhibition ΔRFU(60 min-0 min)
[6] = retest, Run1, 10 µM, read-out: RelA Retest % Inhibition @ 10 µM Run1
[7] = retest, Run2, 10 µM, read-out: RelA Retest % Inhibition @ 10 µM Run2
[8] = retest, average of Run1 and Run2, 10 µM, read-out: RelA Retest % Inhibition @ 10 µM Avg.
[9] = HTS, known drugs, 10 µM, read-out: p52 HTS % Inhibition @ 10 µM
[10] = kinetic assay, 60 min-0 min, 10 µM, read-out: Kinetic assay @ 10 µM p52 % Inhibition ΔRFU(60 min-0 min)
[11] = retest, Run1, 10 µM, read-out: p52 Retest % Inhibition @ 10 µM Run1
[12] = retest, Run2, 10 µM, read-out: p52 Retest % Inhibition @ 10 µM Run2
[13] = retest, average of Run1 and Run2, 10 µM, read-out: p52 Retest % Inhibition @ 10 µM Avg.
[14] = HTS, 5 µg/mL, NPDepo hits, read-out: RelA HTS % Inhibition @ 5 µg/mL
[15] = Retest Run1, 5 µg/mL, read-out: RelA Retest % Inhibition @ 5 µg/mL Run1
[16] = Retest Run2, 5 µg/mL, read-out: RelA Retest % Inhibition @ 5 µg/mL Run2
[17] = Retest average of Run1 and Run2, 5 µg/mL, read-out: RelA Retest % Inhibition @ 5 µg/mL Avg.
[18] = kinetic assay, 5 µg/mL, ΔRFU 60 min-0 min, read-out: Kinetic assay @ 5 µg/mL RelA Inhibition % ΔRFU(60 min-0 min)
[19] = HTS, 5 µg/mL, NPDepo hits, read-out: p52 HTS % Inhibition @ 5 µg/mL
[20] = Retest Run1, 5 µg/mL, read-out: p52 Retest % Inhibition @ 5 µg/mL Run1
[21] = Retest Run2, 5 µg/mL, read-out: p52 Retest % Inhibition @ 5 µg/mL Run2
[22] = Retest average of Run1 and Run2, 5 µg/mL, read-out: p52 Retest % Inhibition @ 5 µg/mL Avg.
[23] = kinetic assay, 5 µg/mL, ΔRFU 60 min-0 min, read-out: Kinetic assay @ 5 µg/mL p52 Inhibition % ΔRFU(60 min-0 min)

Compound: O=c1c(=Cc2ccc(-c3ccccc3F)o2)sc2nc3sc4c(c3c(=O)n12)CCCC4
- RelA HTS % Inhibition ([1]; HTS, NPDepo hits): 33.6%
- RelA Retest % Inhibition Run1 ([1]; Retest Run1): 26.4%
- RelA Retest % Inhibition Run2 ([1]; Retest Run2): 32.2%
- RelA Retest % Inhibition Avg. ([1]; Retest average of Run1 and Run2): 29.3%
- Kinetic assay RelA Inhibition % ΔRFU(60 min-0 min) [1, 3]: 0.774%
- p52 HTS % Inhibition ([2]; HTS, NPDepo hits): 20.7%
- p52 Retest % Inhibition Run1 [2]: 25.8%
- p52 Retest % Inhibition Run2 [2]: 30.7%
- p52 Retest % Inhibition Avg. [2]: 28.2%
- Kinetic assay p52 Inhibition % ΔRFU(60 min-0 min) [2, 3]: -0.236%

Compound: Cc1[nH]c(/C=C2\C(=O)Nc3ccccc32)c(C)c1CCC(=O)O [SU 6668]
- inhibition at 10 µM [1, 4]: 29.9%
- inhibition at 10 µM [1, 5]: -15%
- inhibition at 10 µM [1, 6]: 32.3%
- inhibition at 10 µM [1, 7]: 36.4%
- inhibition at 10 µM [1, 8]: 34.3%
- inhibition at 10 µM [2, 9]: 33.8%
- inhibition at 10 µM [2, 10]: -12%
- inhibition at 10 µM [2, 11]: 29.3%
- inhibition at 10 µM [2, 12]: 32.3%
- inhibition at 10 µM [2, 13]: 30.8%

Compound: CC(=O)Oc1cccc2c1C(=O)c1c(OC(C)=O)cc(C(=O)O)cc1C2=O [DIACERIN]
- Kinetic assay RelA % Inhibition ΔRFU(60 min-0 min) ([1]; kinetic assay, 60 min-0 min): 3%
- Kinetic assay p52 % Inhibition ΔRFU(60 min-0 min) ([2]; kinetic assay, 60 min-0 min): 2.21%

Compound: Cc1ccc(C(=O)Nc2ccc(S(=O)(=O)[O-])c3cc(S(=O)(=O)[O-])cc(S(=O)(=O)[O-])c23)cc1NC(=O)c1cccc(NC(=O)Nc2cccc(C(=O)Nc3cc(C(=O)Nc4ccc(S(=O)(=O)[O-])c5cc(S(=O)(=O)[O-])cc(S(=O)(=O)[O-])c45)ccc3C)c2)c1.[Na+].[Na+].[Na+].[Na+].[Na+].[Na+] [Suramin hexasodium salt]
- Kinetic assay @ 50 µM p52 Inhibition % ΔRFU(120 min-0 min) ([2]; 96 well plate, 50 µM, 120 min-0 min): 73%
- p52 HTS % Inhibition ([2]; HTS, known drugs): 4.7%
- p52 Retest % Inhibition Run1 [2]: 4.9%
- p52 Retest % Inhibition Run2 [2]: 5.3%
- p52 Retest % Inhibition Avg. [2]: 5.1%
- Kinetic assay p52 % Inhibition ΔRFU(60 min-0 min) ([2]; kinetic assay, 60 min-0 min): 7%

Compound: O=c1cc[nH]c(=O)[nH]1 [URACIL]
- inhibition at 10 µM [1, 4]: 1.1%
- inhibition at 10 µM [1, 5]: -1.11%
- inhibition at 10 µM [1, 6]: 0.0644%
- inhibition at 10 µM [1, 7]: 0.634%
- inhibition at 10 µM [1, 8]: 0.349%
- inhibition at 10 µM [2, 9]: 30.5%
- inhibition at 10 µM [2, 10]: -1%
- inhibition at 10 µM [2, 11]: 0.245%
- inhibition at 10 µM [2, 12]: 0.9%
- inhibition at 10 µM [2, 13]: 0.6%

Compound: COc1cccc2c1C(=O)c1c(O)c3c(c(O)c1C2=O)C[C@@](O)(C(C)=O)C[C@@H]3O[C@H]1C[C@H](N)[C@H](O)[C@H](C)O1 [Daunorubicin hydrochloride]
- Kinetic assay p52 % Inhibition ΔRFU(60 min-0 min) ([2]; kinetic assay, 60 min-0 min): -16% and -18%

Compound: O=C(O)c1cc(O)c2c(c1)[C@H]([C@H]1c3cc(C(=O)O)cc(O)c3C(=O)c3c(O[C@@H]4O[C@H](CO)[C@@H](O)[C@H](O)[C@H]4O)cccc31)c1cccc(O[C@@H]3O[C@H](CO)[C@@H](O)[C@H](O)[C@H]3O)c1C2=O [Sennoside A]
- Hit Judgement of: RelA [1]: 1
- inhibition at 5 µg/mL [1, 14]: 85.4%
- inhibition at 5 µg/mL [1, 15]: 88.7%
- inhibition at 5 µg/mL [1, 16]: 100%
- inhibition at 5 µg/mL [1, 17]: 94.6%
- inhibition at 5 µg/mL [1, 18]: 31%
- Hit Judgement of: p52 [2]: 1

Compound: CC(=O)Oc1cccc2c1C(=O)c1c(OC(C)=O)cc(C(=O)O)cc1C2=O [Diacerein]
- inhibition at 10 µM [1, 4]: 97.4%
- inhibition at 10 µM [1, 5]: 4%
- inhibition at 10 µM [1, 6]: 51.6%
- inhibition at 10 µM [1, 7]: 57.2%
- inhibition at 10 µM [1, 8]: 54.4%
- inhibition at 10 µM [2, 9]: 72.2%
- inhibition at 10 µM [2, 10]: 3%
- inhibition at 10 µM [2, 11]: 46.8%
- inhibition at 10 µM [2, 12]: 54%
- inhibition at 10 µM [2, 13]: 50.4%

Compound: COc1ccc2[nH]cc(C3=CCNCC3)c2c1.COc1ccc2[nH]cc(C3=CCNCC3)c2c1.O=C(O)CCC(=O)O [RU 24969 hemisuccinate]
- Kinetic assay RelA % Inhibition ΔRFU(60 min-0 min) ([1]; kinetic assay, 60 min-0 min): -19%
- Kinetic assay p52 % Inhibition ΔRFU(60 min-0 min) ([2]; kinetic assay, 60 min-0 min): -22%

Compound: O=C1C=CC(=C(c2ccc(O)c(O)c2)c2ccccc2S(=O)(=O)O)C=C1O (mixture of isomers) [Pyrocatechol violet]
- Hit Judgement of: RelA [1]: 1
- inhibition at 5 µg/mL [1, 14]: 52.5%
- inhibition at 5 µg/mL [1, 15]: 43.2%
- inhibition at 5 µg/mL [1, 16]: 47.5%
- inhibition at 5 µg/mL [1, 17]: 45.3%
- inhibition at 5 µg/mL [1, 18]: 15%
- Hit Judgement of: p52 [2]: 1
- inhibition at 5 µg/mL [2, 19]: 4.4%
- inhibition at 5 µg/mL [2, 20]: 14.9%
- inhibition at 5 µg/mL [2, 21]: 16.2%
- inhibition at 5 µg/mL [2, 22]: 15.6%
- inhibition at 5 µg/mL [2, 23]: 6%

Compound: COc1cccc2c1C(=O)c1c(O)c3c(c(O)c1C2=O)C[C@@](O)(C(C)=O)C[C@@H]3O[C@H]1C[C@H](N)[C@H](O)[C@H](C)O1 [Daunorubicin(Daunomycin)]
- p52 HTS % Inhibition ([2]; HTS, NPDepo hits): 78.5%
- p52 Retest % Inhibition Run1 [2]: 79.2%
- p52 Retest % Inhibition Run2 [2]: 84.3%
- p52 Retest % Inhibition Avg. [2]: 81.7%
- Kinetic assay p52 Inhibition % ΔRFU(60 min-0 min) [2, 3]: -7%

Compound: Cc1ccc(C(=O)Nc2ccc(S(=O)(=O)O)c3cc(S(=O)(=O)O)cc(S(=O)(=O)O)c23)cc1NC(=O)c1cccc(NC(=O)Nc2cccc(C(=O)Nc3cc(C(=O)Nc4ccc(S(=O)(=O)O)c5cc(S(=O)(=O)O)cc(S(=O)(=O)O)c45)ccc3C)c2)c1 [Suramin, reference compound]
- p52–DNA binding inhibition at 50 µM ([2]; 96-well plates, 50 µM): inhibited both RelA–DNA and p52–DNA binding
- suppression of p52–DNA binding ([2]; HTS, 10 µM or 5 µg/mL): less than 10%

Compound: COc1cc(/C=C/C(=O)CC(=O)/C=C/c2ccc(O)c(OC)c2)ccc1O [Curcumin]
- inhibition at 5 µg/mL [1, 14]: 116%
- inhibition at 5 µg/mL [1, 15]: 135%
- inhibition at 5 µg/mL [1, 16]: 149%
- inhibition at 5 µg/mL [1, 17]: 142%
- inhibition at 5 µg/mL [1, 18]: -84%

Compound: COc1cccc2c1C(=O)c1c(O)c3c(c(O)c1C2=O)C[C@@](O)(C(=O)CO)C[C@@H]3O[C@H]1C[C@H](N)[C@H](O)[C@H](C)O1 [Doxorubicin]
- inhibition at 5 µg/mL [1, 14]: 70.5%
- inhibition at 5 µg/mL [1, 15]: 69.2%
- inhibition at 5 µg/mL [1, 16]: 78.3%
- inhibition at 5 µg/mL [1, 17]: 73.8%
- inhibition at 5 µg/mL [1, 18]: -12%

Compound: COc1cccc2c1C(=O)c1c(O)c3c(c(O)c1C2=O)C[C@@](O)(C(C)=O)C[C@@H]3O[C@H]1C[C@H](N)[C@H](O)[C@H](C)O1 [Daunomycin]
- inhibition at 5 µg/mL [2, 19]: 77.8%
- inhibition at 5 µg/mL [2, 20]: 92.7%
- inhibition at 5 µg/mL [2, 21]: 99%
- inhibition at 5 µg/mL [2, 22]: 95.9%
- inhibition at 5 µg/mL [2, 23]: -4.66%

Compound: COc1cccc2c1C(=O)c1c(O)c3c(c(O)c1C2=O)C[C@@](O)(C(C)=O)C[C@@H]3O[C@H]1C[C@H](N)[C@H](O)[C@H](C)O1 [DAUNORUBICIN]
- Kinetic assay p52 % Inhibition ΔRFU(60 min-0 min) ([2]; kinetic assay, 60 min-0 min): -16%
